Measured values as given in US12404252B2, “Salt of 2-amino-2-(2-(1-decyl-1H-1,2,3-triazol-4-yl)ethyl)propane-1,3-diol, and pharmaceutical composition containing same” (NEXTGEN BIOSCIENCE CO., LTD, priority 2021, dated 2025).
Where “and” joins values, the source holds several entries; their conditions need not be identical. Identical values can stand only once.

How the values were obtained:
[1] = target: hERG potassium ion channel (Homo sapiens, UniProt Q12809)
[2] = test system: unilateral ureteral obstruction (UUO) model; assay: Unilateral ureteral obstruction (UUO) renal fibrosis model; assay type: in vivo; settings: UUO mice, 2 weeks
Experimental: The antifibrotic effect of Compound 1a in renal disease was evaluated using the unilateral ureteral obstruction (UUO) model, which is a renal fibrotic disease model. Kidney fibrosis was induced by unilateral ureteral obstruction of mice, and then Compound 1a at 10, 30, and 90 mg/kg/day and the positive control substance telmisartan at 30 mg/kg/day were orally administered to the mice once a day for 2 weeks.

[3] = Oxidation stability test (30% H2O2); assay type: physicochemical
[4] = pH stability and salinity stability, 40±2° C.; assay type: physicochemical
Experimental: pH and salinity stability tests for the hemifumirate salt of Compound 1 were performed at an initial target concentration of 2 mg/mL. The pH and salinity stability conditions used to evaluate the hemifumirate salt of Compound 1 and the evaluation results are as follows.
• 40±2° C.: Conditions in which the vial was capped and upright • Storage container for stability: 2-mL screw neck clear glass vial (manufactured by La-Pha-Pack) • Target concentration: ˜ 2 mg/mL (adding the sample to 1 mL of medium, followed by vortexing for 30 seconds) • 500 μL of the test mixture was dissolved in 500 μL of a diluent (1:1 methanol/water), and the prepared solution was analyzed by HPLC without filtration.

[5] = test system: dextran sulfate sodium (DSS)-induced colitis model; assay: DSS-induced colitis mouse model, disease activity index; assay type: in vivo; settings: DSS mice
Experimental: The effectiveness of Compound 1a against inflammatory bowel disease was evaluated using the dextran sulfate sodium (DSS)-induced colitis model. In the mouse model, inflammatory bowel disease was induced by administering DSS to mice at a concentration of 2.5% via drinking water. Mice were divided into a test group administered Compound 1a, a positive control group administered ozanimod or MTX (methotrexate), a vehicle group, and a normal control group, and each group had n=10. Compound 1, a compound of the present invention, was orally administered at doses of 5 and 10 mg/kg once a day for 7 days to the inflammatory bowel disease-induced model, and ozanimod as a positive control was administered orally at a dose of 5 mg/kg once a day, and MTX (methotrexate) as a positive control was administered intraperitoneally at a dose of 3 mg/kg three times a week.
DAI represents the total score of weight loss relative to initial weight, stool consistency, and degree of intestinal bleeding of the mouse. The criteria for calculation of DAI are shown in Table 10 below, and DAI was evaluated on days 0, 1, 2, 3, 4, 5, 6, 7, and 8.

[6] = test system: T cells, CD4 T cells, and CD8 T cells; assay: Inhibitory effect against mouse immune cells (FACS after oral administration); assay type: in vivo; settings: mice, oral 3 mg/kg
Experimental: In order to examine whether Compound 1, which acts on the S1P receptor, also is effective in reducing lymphocytes, the effect of Compound 1 on immune cells was evaluated. After oral administration of Compound 1 to mice at 3 mg/kg/day, changes in lymphocytes in peripheral blood (PB) and bone marrow (BM) were classified into T cells, CD4 T cells, and CD8 T cells. FACS analysis was performed 0, 4, 8, 12, 24, and 36 hours after administration of the test substance. Cell number was measured and expressed as a percentage relative to that at time 0 (% of control).

[7] = test system: T cells, CD4 T cells, and CD8 T cells; assay: Inhibitory effect against rat immune cells (FACS after oral administration); assay type: in vivo; settings: SD rats
Experimental: In order to evaluate the effect of Compound 1a on rat immune cells, Compound 1a was administered orally to SD rats at 10 mg/kg/day, and then lymphocytes in peripheral blood (PB) and bone marrow (BM) were classified into T cells, CD4 T cells, and CD8 T cells. FACS analysis was performed 0, 4, 8, 12, 24, 36, and 48 hours after administration of the test substance. Cell number was measured and expressed as a percentage relative to that at time 0 (% of control). The numbers of T cells, CD4 T cells, and CD8 T cells were measured and expressed as percentages relative to those at time 0 (% of control).

Sequence of hERG potassium ion channel (Q12809 whole entry): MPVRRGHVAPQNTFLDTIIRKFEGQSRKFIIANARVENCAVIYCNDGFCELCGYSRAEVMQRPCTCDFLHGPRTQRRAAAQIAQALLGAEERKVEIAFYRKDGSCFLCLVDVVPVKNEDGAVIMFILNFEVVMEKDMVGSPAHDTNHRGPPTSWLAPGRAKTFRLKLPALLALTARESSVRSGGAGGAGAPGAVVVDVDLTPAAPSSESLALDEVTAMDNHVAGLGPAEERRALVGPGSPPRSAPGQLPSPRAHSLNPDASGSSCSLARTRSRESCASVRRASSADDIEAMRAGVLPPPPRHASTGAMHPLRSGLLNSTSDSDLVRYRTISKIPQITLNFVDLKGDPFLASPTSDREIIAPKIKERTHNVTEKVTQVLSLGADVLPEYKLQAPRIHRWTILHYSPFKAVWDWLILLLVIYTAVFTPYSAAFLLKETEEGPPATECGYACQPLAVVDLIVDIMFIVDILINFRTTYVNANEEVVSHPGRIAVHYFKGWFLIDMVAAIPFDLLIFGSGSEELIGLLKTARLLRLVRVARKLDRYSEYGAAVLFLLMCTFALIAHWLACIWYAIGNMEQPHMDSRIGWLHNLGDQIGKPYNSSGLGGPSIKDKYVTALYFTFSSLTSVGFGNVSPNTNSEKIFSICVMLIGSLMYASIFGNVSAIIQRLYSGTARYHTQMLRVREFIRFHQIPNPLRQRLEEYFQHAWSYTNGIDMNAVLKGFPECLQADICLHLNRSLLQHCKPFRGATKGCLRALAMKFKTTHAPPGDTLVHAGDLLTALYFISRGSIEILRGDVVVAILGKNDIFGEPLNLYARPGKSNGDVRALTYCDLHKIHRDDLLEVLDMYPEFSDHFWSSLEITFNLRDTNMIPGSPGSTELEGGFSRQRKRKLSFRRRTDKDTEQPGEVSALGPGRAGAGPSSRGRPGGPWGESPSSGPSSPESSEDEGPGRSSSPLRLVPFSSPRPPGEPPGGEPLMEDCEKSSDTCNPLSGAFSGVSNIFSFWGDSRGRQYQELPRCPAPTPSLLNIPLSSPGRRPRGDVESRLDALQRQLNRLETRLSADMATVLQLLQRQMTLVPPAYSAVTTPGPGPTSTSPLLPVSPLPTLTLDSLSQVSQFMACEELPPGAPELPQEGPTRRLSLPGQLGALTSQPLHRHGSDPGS

SMILES: CCCCCCCCCCn1cc(CCC(N)(CO)CO)nn1 [Compound 1a, 2-amino-2-(2-(1-decyl-1H-1,2,3-triazol-4-yl)ethyl) propane-1,3-diol]
- Hill coefficient [1]: 1.527
- compensated suppression rate (%) of hERG channel currents ([1]; 30 μM): 82.62±7.31%
- Kidney hydroxyproline ([2]; 10 mg/kg/day orally): statistically significantly decreased
- Kidney hydroxyproline ([2]; 30 mg/kg/day orally): statistically significantly decreased
- Kidney hydroxyproline ([2]; 90 mg/kg/day orally): statistically significantly decreased
- Kidney hydroxyproline (second statement, 'in particular', p<0.05) ([2]; 90 mg/kg/day orally): statistically significantly decreased
- Purity % ([3]; 30% H2O2 25° C. for 3 hours): 99.50%
- Purity % ([3]; 30% H2O2 25° C. for 24 hours): 94.30%
- Purity % ([4]; SGF/40° C., 1-week): 99.25%
- Purity % ([4]; SGF/40° C., 2-week): 99.29%
- Purity % ([4]; SGF/40° C., Initial): 99.13%
- Purity % ([4]; Saline (0.9% NaCl)/40° C., 1-week): 99.05%
- Purity % ([4]; Saline (0.9% NaCl)/40° C., Initial): 99.20%
- Purity % ([4]; pH 1.2 HCl buffer/40° C., 1-week): 98.26%
- Purity % ([4]; pH 1.2 HCl buffer/40° C., 2-week): 98.76%
- Purity % ([4]; pH 1.2 HCl buffer/40° C., Initial): 98.92%
- Purity % ([4]; pH 4.7 acetate buffer/40° C., 1-week): 99.46%
- Purity % ([4]; pH 4.7 acetate buffer/40° C., 2-week): 99.69%
- Purity % ([4]; pH 4.7 acetate buffer/40° C., Initial): 99.23%
- Purity % ([4]; pH 6.8 phosphate buffer/40° C., 1-week): 98.36%
- Purity % ([4]; pH 6.8 phosphate buffer/40° C., Initial): 99.20%
- clinical indicators (weight loss, stool consistency, intestinal bleeding) versus ozanimod ([5]; 5 mg/kg orally): equivalent to or higher than those of ozanimod
- clinical indicators (weight loss, stool consistency, intestinal bleeding) versus ozanimod ([5]; 10 mg/kg orally): equivalent to or higher than those of ozanimod
- CD4 T cells in peripheral blood, relative to time 0 (% of control) ([6]; 4 hours): 16.4% and 17.6%
- CD8 T cells in peripheral blood, relative to time 0 (% of control) ([6]; 4 hours): 5.9% and 9.3%
- T cells in peripheral blood, relative to time 0 (% of control) ([6]; 4 hours): 40.6% and 41.6%
- T-cell distribution in bone marrow (BM), % of control ([6]; 4 hours): 135% and 120%
- T-cell distribution in bone marrow (BM), % of control ([6]; 24 hours): 131% and 118%
- change of cell number in bone marrow (BM) [7]: no change or a tendency to increase
- inhibitory effect on number of T cells in peripheral blood (PB) ([7]; dose-dependent, doses of the three values not given): 70% and 80% and 87%
